The target of test [1] is CDK4/Cyclin D1 (Homo sapiens (Human), UniProt P11802). Description: CDK4/Cyclin D1 CHEF Assay (AQT0258 peptide). The note with it: 200 uM ATP, read-out: CDK4/ CyclinD1 AQT IC50. The class given is biochemical. The essentials: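 CDK4/Cyclin D1 (2.5 nM) phosphorylating 10 uM Sox-labelled peptide AQT0258 with 200 uM ATP (Km 195.2 uM), 10 mM MgCl2, 2% DMSO, 54 mM HEPES pH 7.5. Enzyme and inhibitor pre-incubated 30 min, reaction 3 hrs at 22° C.; CHEF fluorescence (ex 360/em 485 nm), IC50 from fractional velocity, 4-parameter fit.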

In test [2] the target is CDK6/Cyclin D3 (Homo sapiens (Human), UniProt Q00534). Description: CDK6/Cyclin D3 ADP-Glo Kinase Assay. The note with it: 100 uM ATP, read-out: CDK6/ CyclinD3 IC50. The test is classed as biochemical. The essentials:
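Luminescent ADP-Glo read-out of ADP produced, used to fit IC50 (4-parameter equation on fractional velocity against inhibitor concentration). Kinase reaction: enzyme and inhibitor together 30 min, then ATP-containing substrate added for 90 min, all at room temperature.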

The target of test [3] is CDK2/Cyclin E1 full length (Homo sapiens (Human), UniProt P24941). The experiment in a line: CDK2/Cyclin E1 Full Length ADP-Glo Kinase Assay. The class given is biochemical. The note with it: 20 uM ATP, read-out: CDK2/ CyclinE1 IC50. In short, it runs like this: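 ADP-Glo luminescence read-out of ADP formed by 0.328 nM wild-type full-length CDK2/Cyclin E1, 90 min at room temperature with 0.75 uM substrate and 20 uM ATP (Km 64.78 uM), after 30 min enzyme–inhibitor pre-incubation; 50 mM HEPES pH 7.5, 2% DMSO. Four-parameter IC50 fit.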

The target in test [4] is CDK1/Cyclin B1 (Homo sapiens (Human), UniProt P06493). Description: CDK1/Cyclin B1 ADP-Glo Kinase Assay. The note with it: 80 uM ATP. The class given is biochemical. In short, it runs like this:
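Luminescent ADP-Glo detection of ADP produced over 90 min at room temperature. Enzyme complex 4.917 nM, pre-exposed 30 min to inhibitor; ATP 80 µM (near Km 78.6 µM), substrate 0.75 µM, HEPES pH 7.5, 2% DMSO. Fractional velocity fitted to 4-parameter IC50 equation.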

Test [5] concerns OVCAR-3 cells. The experiment in a line: Cell Growth Inhibition, OVCAR-3 (CellTiterGlo, 6 days). The test is classed as cell-based. The note with it: OVCAR-3, 6-day treatment, CellTiterGlo 2.0. In short, it runs like this:
(§1)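 Compounds were run in half-log series, usually 10–10,000 nM, with 500 cells/well of OVCAR-3 or MCF-7 in RPMI plus 10% FBS. After a 6-day culture at 37 °C, viability was read by CellTiterGlo luminescence. Inhibition relative to control was fitted (four-parameter, variable slope) for IC50.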

Test [6] has as its system MCF-7 cells. The experiment in a line: Cell Growth Inhibition, MCF-7 (CellTiterGlo, 6 days). The test is classed as cell-based. The note with it: MCF-7, 6-day treatment, CellTiterGlo 2.0. The essentials:
as §1

Sequence of CDK1/Cyclin B1 (P06493 whole entry): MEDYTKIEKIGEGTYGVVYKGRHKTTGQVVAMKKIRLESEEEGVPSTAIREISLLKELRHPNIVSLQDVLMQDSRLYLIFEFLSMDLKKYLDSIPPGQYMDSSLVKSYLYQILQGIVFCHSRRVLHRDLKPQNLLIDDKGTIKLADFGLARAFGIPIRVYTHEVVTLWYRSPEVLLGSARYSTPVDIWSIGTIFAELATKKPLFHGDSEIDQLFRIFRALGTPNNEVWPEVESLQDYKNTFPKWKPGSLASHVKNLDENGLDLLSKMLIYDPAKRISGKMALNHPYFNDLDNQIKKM
Sequence of CDK1/Cyclin B1 (P14635 whole entry partner): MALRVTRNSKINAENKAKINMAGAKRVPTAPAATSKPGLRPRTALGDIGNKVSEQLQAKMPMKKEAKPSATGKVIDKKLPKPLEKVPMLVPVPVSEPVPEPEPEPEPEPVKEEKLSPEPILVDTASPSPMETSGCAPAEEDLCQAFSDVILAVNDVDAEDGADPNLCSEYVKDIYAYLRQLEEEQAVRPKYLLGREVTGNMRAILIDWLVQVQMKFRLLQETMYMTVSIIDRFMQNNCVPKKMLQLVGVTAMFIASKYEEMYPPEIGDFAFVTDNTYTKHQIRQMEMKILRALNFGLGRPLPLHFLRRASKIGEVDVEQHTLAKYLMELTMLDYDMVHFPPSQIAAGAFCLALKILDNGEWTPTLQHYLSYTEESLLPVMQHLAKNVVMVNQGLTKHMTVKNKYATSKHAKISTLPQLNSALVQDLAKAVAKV
Sequence of CDK4/Cyclin D1 (P11802 whole entry): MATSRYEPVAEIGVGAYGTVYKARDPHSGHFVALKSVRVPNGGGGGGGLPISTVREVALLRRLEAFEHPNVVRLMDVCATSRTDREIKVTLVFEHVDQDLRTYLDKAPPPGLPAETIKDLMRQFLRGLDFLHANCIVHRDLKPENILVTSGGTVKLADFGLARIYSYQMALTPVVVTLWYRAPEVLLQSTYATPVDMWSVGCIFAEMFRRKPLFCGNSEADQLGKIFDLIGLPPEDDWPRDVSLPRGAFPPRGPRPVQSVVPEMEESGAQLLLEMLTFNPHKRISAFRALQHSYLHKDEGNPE
Sequence of CDK4/Cyclin D1 (P24385 whole entry partner): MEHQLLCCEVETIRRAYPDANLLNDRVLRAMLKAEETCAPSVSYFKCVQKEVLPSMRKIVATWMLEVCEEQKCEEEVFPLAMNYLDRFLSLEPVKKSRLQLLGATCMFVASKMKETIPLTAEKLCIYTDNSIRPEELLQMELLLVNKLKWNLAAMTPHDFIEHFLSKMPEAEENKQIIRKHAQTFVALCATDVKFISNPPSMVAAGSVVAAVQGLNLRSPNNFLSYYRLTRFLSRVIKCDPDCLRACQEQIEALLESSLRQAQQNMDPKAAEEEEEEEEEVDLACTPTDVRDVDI
Sequence of CDK6/Cyclin D3 (Q00534 whole entry): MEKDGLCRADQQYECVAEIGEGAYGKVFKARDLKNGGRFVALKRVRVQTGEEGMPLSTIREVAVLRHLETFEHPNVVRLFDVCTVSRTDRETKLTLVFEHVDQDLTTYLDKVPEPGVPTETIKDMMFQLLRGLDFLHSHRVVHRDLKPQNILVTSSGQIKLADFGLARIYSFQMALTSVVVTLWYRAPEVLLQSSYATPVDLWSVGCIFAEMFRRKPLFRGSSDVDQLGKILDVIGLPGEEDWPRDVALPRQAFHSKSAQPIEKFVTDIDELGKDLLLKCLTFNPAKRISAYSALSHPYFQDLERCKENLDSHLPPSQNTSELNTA
Sequence of CDK6/Cyclin D3 (P30281 whole entry partner): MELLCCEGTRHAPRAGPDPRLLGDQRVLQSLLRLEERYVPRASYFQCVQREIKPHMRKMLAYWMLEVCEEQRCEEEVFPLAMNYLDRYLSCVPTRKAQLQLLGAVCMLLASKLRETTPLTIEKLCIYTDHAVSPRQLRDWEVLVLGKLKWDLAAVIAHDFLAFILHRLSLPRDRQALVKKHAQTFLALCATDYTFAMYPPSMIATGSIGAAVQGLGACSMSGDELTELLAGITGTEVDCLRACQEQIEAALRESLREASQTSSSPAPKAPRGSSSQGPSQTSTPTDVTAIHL

As for `CS(=O)(=O)N1CCC(Nc2ncc3cc(C(F)F)cc(C4CC5(C4)CN(CC(F)(F)CO)C5)c3n2)CC1` [Example 112, 3-(6-(6-(difluoromethyl)-2-((1-(methylsulfonyl)piperidin-4-yl)amino)quinazolin-8-yl)-2-azaspiro[3.3]heptan-2-yl)-2,2-difluoropropan-1-ol], the IC50 is less than 200 nM in test [1]; less than 200 nM in test [2]; less than 200 nM in test [3]; less than 200 nM in test [4]; less than 200 nM in test [5] (Homo sapiens, 144 h); 200 to 500 nM in test [6] (Homo sapiens, MCF7, 144 h).

Consider `CN1C[C@@H]2C(Nc3ncc4cc(C(F)F)cc(N5CCC6(CCN(S(C)(=O)=O)C6)C5)c4n3)[C@@H]2C1` (stereo partly drawn) [Example 56, 6-(difluoromethyl)-N-((1R,5S,6s)-3-methyl-3-azabicyclo[3.1.0]hexan-6-yl)-8-(7-(methylsulfonyl)-2,7-diazaspiro[4.4]nonan-2-yl)quinazolin-2-amine], for which the IC50 in test [1] was 200 to 500 nM; in test [2], greater than 2000 nM; in test [3] it was greater than 2000 nM; in test [4], greater than 2000 nM; in test [5] it was greater than 2000 nM; in test [6] it was greater than 2000 nM.

In the case of `CC1(S(=O)(=O)N2CCC(Nc3ncc4cc(C(F)F)cc(N5CC6(CCNC6)C5)c4n3)CC2)CC1` [Example 87, 6-(difluoromethyl)-N-(1-((1-methylcyclopropyl)sulfonyl)piperidin-4-yl)-8-(2,6-diazaspiro[3.4]octan-2-yl)quinazolin-2-amine], the IC50 is less than 200 nM in test [1]; less than 200 nM in test [2]; less than 200 nM in test [3]; less than 200 nM in test [4]; 200 to 500 nM in test [5] (Homo sapiens, 144 h); 500 to 2000 nM in test [6] (Homo sapiens, MCF7, 144 h).

As to `FC(F)c1cc(N2CC3(CCNC3)C2)c2nc(Nc3ccc4c(c3)CN(C3CC3)C4)ncc2c1` [Example 82, N-(2-cyclopropylisoindolin-5-yl)-6-(difluoromethyl)-8-(2,6-diazaspiro[3.4]octan-2-yl)quinazolin-2-amine], the IC50 is less than 200 nM in test [1]; less than 200 nM in test [2]; less than 200 nM in test [3]; 500 to 2000 nM in test [4]; greater than 2000 nM in test [5] (Homo sapiens, 144 h); 500 to 2000 nM in test [6] (Homo sapiens, MCF7, 144 h).

As to `CN1Cc2ccc(Nc3ncc4cc(C(F)F)cc(N5CC6(C5)CN(C5CC5)C6)c4n3)cc2C1` [Example 65, 8-(6-cyclopropyl-2,6-diazaspiro[3.3]heptan-2-yl)-6-(difluoromethyl)-N-(2-methylisoindolin-5-yl)quinazolin-2-amine], the IC50 in test [1] was less than 200 nM; in test [2] it was less than 200 nM; in test [3], less than 200 nM; in test [4], greater than 2000 nM; in test [5] (Homo sapiens, 144 h), 500 to 2000 nM; in test [6] (Homo sapiens, MCF7, 144 h), 500 to 2000 nM.

In the case of `CS(=O)(=O)N1Cc2ccc(Nc3ncc4cc(C(F)F)cc(N5CC6(C5)CN(C5CC5)C6)c4n3)cc2C1` [Example 72, 8-(6-cyclopropyl-2,6-diazaspiro[3.3]heptan-2-yl)-6-(difluoromethyl)-N-(2-(methylsulfonyl)isoindolin-5-yl)quinazolin-2-amine], the IC50 was less than 200 nM in test [1]; less than 200 nM in test [2]; less than 200 nM in test [3]; less than 200 nM in test [4]; greater than 2000 nM in test [5] (Homo sapiens, 144 h); 500 to 2000 nM in test [6] (Homo sapiens, MCF7, 144 h).

`CN1CCC2(C1)CN(c1cc(C(F)F)cc3cnc(NC4CCN(S(=O)(=O)C5CC5)CC4)nc13)C2` [Example 81, N-(1-(cyclopropylsulfonyl)piperidin-4-yl)-6-(difluoromethyl)-8-(6-methyl-2,6-diazaspiro[3.4]octan-2-yl)quinazolin-2-amine]: the IC50 in test [1] is less than 200 nM; in test [2], less than 200 nM; in test [3], less than 200 nM; in test [4], 200 to 500 nM; in test [5] (Homo sapiens, 144 h), 500 to 2000 nM; in test [6] (Homo sapiens, MCF7, 144 h) it was 500 to 2000 nM.

For `CS(=O)(=O)N1CCC(Nc2ncc3cc(C(F)F)cc(N4CC5(CCNC5)C4)c3n2)CC1` [Example 63, 6-(difluoromethyl)-N-(1-(methylsulfonyl)piperidin-4-yl)-8-(2,6-diazaspiro[3.4]octan-2-yl)quinazolin-2-amine], the IC50 is less than 200 nM in test [1]; less than 200 nM in test [2]; less than 200 nM in test [3]; less than 200 nM in test [4]; 500 to 2000 nM in test [5] (Homo sapiens, 144 h); 500 to 2000 nM in test [6] (Homo sapiens, MCF7, 144 h).

For `CS(=O)(=O)N1CCC(Nc2ncc3cc(C(F)F)cc(C4CC(O)(C(F)F)C4)c3n2)CC1` (stereo not drawn) [Example 113, 1-(difluoromethyl)-3-(6-(difluoromethyl)-2-((1-(methylsulfonyl)piperidin-4-yl)amino)quinazolin-8-yl)cyclobutan-1-ol], the IC50 in test [1] was less than 200 nM; in test [2], less than 200 nM; in test [3] it was less than 200 nM; in test [4], less than 200 nM; in test [5] (Homo sapiens, 144 h), 200 to 500 nM; in test [6] (Homo sapiens, MCF7, 144 h) it was 200 to 500 nM.

`O=S(=O)(C1CC1)N1CCC(Nc2ncc3cc(C(F)F)cc(C4CC5(C4)CN(CC(F)F)C5)c3n2)CC1` [Example 90, N-(1-(cyclopropylsulfonyl)piperidin-4-yl)-8-(2-(2,2-difluoroethyl)-2-azaspiro[3.3]heptan-6-yl)-6-(difluoromethyl)quinazolin-2-amine]: the IC50 was less than 200 nM in test [1]; less than 200 nM in test [2]; less than 200 nM in test [3]; less than 200 nM in test [4]; 200 to 500 nM in test [5] (Homo sapiens, 144 h); 500 to 2000 nM in test [6] (Homo sapiens, MCF7, 144 h).

`CS(=O)(=O)N1CCC(Nc2ncc3cc(C(F)F)cc(N4CC(F)(F)C5(CNC5)C4)c3n2)CC1` [Example 92, 8-(8,8-difluoro-2,6-diazaspiro[3.4]octan-6-yl)-6-(difluoromethyl)-N-(1-(methylsulfonyl)piperidin-4-yl)quinazolin-2-amine]: the IC50 in test [1] was less than 200 nM; in test [2], less than 200 nM; in test [3], less than 200 nM; in test [4], less than 200 nM; in test [5] (Homo sapiens, 144 h) it was 500 to 2000 nM; in test [6] (Homo sapiens, MCF7, 144 h), 500 to 2000 nM.

Regarding `O=S(=O)(N1CCC(Nc2ncc3cc(C(F)F)cc(N4CC5(CCNC5)C4)c3n2)CC1)C1(C(F)F)CC1` [Example 93, 6-(difluoromethyl)-N-(1-((1-(difluoromethyl)cyclopropyl)sulfonyl)piperidin-4-yl)-8-(2,6-diazaspiro[3.4]octan-2-yl)quinazolin-2-amine], the IC50 in test [1] is less than 200 nM; in test [2], less than 200 nM; in test [3], less than 200 nM; in test [4], less than 200 nM; in test [5] (Homo sapiens, 144 h) it was less than 200 nM; in test [6] (Homo sapiens, MCF7, 144 h) it was 200 to 500 nM.

Take `CN1Cc2ccc(Nc3ncc4cc(C(F)F)cc(N5CC6(CN(C)C6)C5)c4n3)cc2C1` [Example 57, 6-(difluoromethyl)-8-(6-methyl-2,6-diazaspiro[3.3]heptan-2-yl)-N-(2-methylisoindolin-5-yl)quinazolin-2-amine]: the IC50 in test [1] is less than 200 nM; in test [2] it was less than 200 nM; in test [3], less than 200 nM; in test [4], greater than 2000 nM; in test [5] (Homo sapiens, 144 h) it was 500 to 2000 nM; in test [6] (Homo sapiens, MCF7, 144 h), 500 to 2000 nM.

Consider `FC(F)c1cc(N2CC3(CCNC3)C2)c2nc(NC3CCN(c4ncc(C5CC5)cn4)CC3)ncc2c1` [Example 68, N-(1-(5-cyclopropylpyrimidin-2-yl)piperidin-4-yl)-6-(difluoromethyl)-8-(2,6-diazaspiro[3.4]octan-2-yl)quinazolin-2-amine], for which the IC50 in test [1] is less than 200 nM; in test [2] it was 200 to 500 nM; in test [3], less than 200 nM; in test [4], less than 200 nM; in test [5] (Homo sapiens, 144 h) it was 500 to 2000 nM; in test [6] (Homo sapiens, MCF7, 144 h), 500 to 2000 nM.

`O=S(=O)(c1ccc(C(F)(F)F)nc1)N1CCC(Nc2ncc3cc(C(F)F)cc(N4CC5(CCNC5)C4)c3n2)CC1` [Example 97, 6-(difluoromethyl)-8-(2,6-diazaspiro[3.4]octan-2-yl)-N-(1-((6-(trifluoromethyl)pyridin-3-yl)sulfonyl)piperidin-4-yl)quinazolin-2-amine]: the IC50 was less than 200 nM in test [1]; less than 200 nM in test [2]; less than 200 nM in test [3]; less than 200 nM in test [4]; less than 200 nM in test [5] (Homo sapiens, 144 h); 200 to 500 nM in test [6] (Homo sapiens, MCF7, 144 h).

Values taken from US20240092761A1, “QUINAZOLINE COMPOUNDS AND METHODS OF USE” (IAMBIC THERAPEUTICS, INC., priority 2022, published 2024).
